Laboratory results: the CheMixHub viscosity set
Several values for one entry are separate records, joined by “and”; a condition that tells them apart may be missing. Equal values may be shown once. ± gives the uncertainty stated by the source.

Columns and labels:
[1] = xn = mol fraction of the nth substance listed

ClCCCCCCCl
101 kPa
Settings | viscosity
308.15 K | 1.616 ± 0.034 mPa·s
313.15 K | 1.533 ± 0.033 mPa·s and 1.534 ± 0.033 mPa·s
318.15 K | 1.387 ± 0.03 mPa·s

FC1CC(F)(F)C(F)(F)C1(F)F (stereo unspecified)
101 kPa
Settings | viscosity [mPa·s]
298.15 K | 1.65 ± 0.07
313.15 K | 1.28 ± 0.05
323.15 K | 1.08 ± 0.04

C=C(C)C(=O)OC
viscosity
Settings | 298.15 K | 303.15 K | 308.15 K | 313.15 K
101 kPa | 0.5625 ± 0.012 mPa·s | 0.5142 ± 0.0058 mPa·s and 0.524 ± 0.011 mPa·s | 0.4932 ± 0.01 mPa·s | 0.4684 ± 0.01 mPa·s
101.3 kPa | 0.584 ± 0.004 mPa·s | – | 0.492 ± 0.004 mPa·s | –

CCCC[P+](C)(CCCC)CCCC.COS(=O)(=O)[O-] + CN1CCCC1=O
[1], 101 kPa
Settings | viscosity [mPa·s]
293.15 K, x1 = 0.2318 | 67.31 ± 27
293.15 K, x1 = 0.6014 | 285.4 ± 120
293.15 K, x1 = 0.7129 | 437.9 ± 180
293.15 K, x1 = 0.8086 | 533 ± 220
293.15 K, x1 = 0.9022 | 633.1 ± 260
293.15 K, x1 = 0.9468 | 676.8 ± 280
298.15 K, x1 = 0.2318 | 38.93 ± 16
298.15 K, x1 = 0.2971 | 50.57 ± 20
298.15 K, x1 = 0.3764 | 80.09 ± 32
298.15 K, x1 = 0.7129 | 294.9 ± 120
298.15 K, x1 = 0.8086 | 370.8 ± 150
298.15 K, x1 = 0.8515 | 411.3 ± 170
298.15 K, x1 = 0.9022 | 451.1 ± 180
298.15 K, x1 = 0.9468 | 487 ± 200
303.15 K, x1 = 0.0914 | 4.938 ± 2
303.15 K, x1 = 0.1311 | 7.781 ± 3.1
303.15 K, x1 = 0.2971 | 25.25 ± 10
303.15 K, x1 = 0.3764 | 40.12 ± 16
303.15 K, x1 = 0.4752 | 65.25 ± 26
303.15 K, x1 = 0.8086 | 262.4 ± 110
303.15 K, x1 = 0.8515 | 295.9 ± 120
303.15 K, x1 = 0.9022 | 328.3 ± 130
303.15 K, x1 = 0.9468 | 353.5 ± 140
308.15 K, x1 = 0.0914 | 2.514 ± 1
308.15 K, x1 = 0.1311 | 3.429 ± 1.4
308.15 K, x1 = 0.1773 | 6.412 ± 2.6
308.15 K, x1 = 0.2318 | 8.924 ± 3.6
308.15 K, x1 = 0.4752 | 30.51 ± 12
308.15 K, x1 = 0.6014 | 66.52 ± 27
308.15 K, x1 = 0.9468 | 268.4 ± 110
313.15 K, x1 = 0.1311 | 3.214 ± 1.3
313.15 K, x1 = 0.1773 | 4.514 ± 1.8
313.15 K, x1 = 0.2318 | 6.789 ± 2.7
313.15 K, x1 = 0.7129 | 95.25 ± 38
318.15 K, x1 = 0.1311 | 4.512 ± 1.8
318.15 K, x1 = 0.1773 | 6.412 ± 2.6
318.15 K, x1 = 0.2318 | 7.124 ± 2.9
318.15 K, x1 = 0.6014 | 31.78 ± 13
318.15 K, x1 = 0.7129 | 72.62 ± 29
323.15 K, x1 = 0.0914 | 2.515 ± 1
323.15 K, x1 = 0.1311 | 3.845 ± 1.5
323.15 K, x1 = 0.1773 | 5.672 ± 2.3
323.15 K, x1 = 0.7129 | 59.09 ± 24
323.15 K, x1 = 0.8086 | 88.33 ± 35

CCCC[n+]1ccn(C)c1.O=C([O-])C(F)(F)F + O
Settings | viscosity [mPa·s]
[1], 298.15 K, 101 kPa, x2 = 0.7927 | 9.03 ± 1

O=C(c1ccccc1)N(O)c1ccccc1 + CS(C)=O
[1], 101 kPa
Settings | viscosity [mPa·s]
308.15 K, x1 = 0.1408 | 2.065 ± 0.099
318.15 K, x1 = 0.4694 | 1.565 ± 0.075

C=C(C)C(=O)OC + CC(C)(C)O
viscosity [mPa·s], [1], 101.3 kPa
Settings | 298.15 K | 308.15 K
x1 = 0.0571 | 3.463 ± 0.02 | 2.088 ± 0.012
x1 = 0.1587 | 2.316 ± 0.013 | 1.51 ± 0.009
x1 = 0.256 | 1.652 ± 0.01 | 1.15 ± 0.007
x1 = 0.3589 | 1.217 ± 0.007 | 0.898 ± 0.006
x1 = 0.4561 | 0.956 ± 0.006 | 0.738 ± 0.005
x1 = 0.4983 | 0.873 ± 0.006 | 0.686 ± 0.005
x1 = 0.5567 | 0.782 ± 0.005 | 0.627 ± 0.004
x1 = 0.6571 | 0.672 ± 0.005 | 0.555 ± 0.004
x1 = 0.7563 | 0.608 ± 0.004 | 0.511 ± 0.004
x1 = 0.841 | 0.58 ± 0.004 | 0.491 ± 0.004
x1 = 0.9335 | 0.573 ± 0.004 | 0.486 ± 0.004
